Measurements: patent publication US20190255042A1, “APPLICATION OF HEDGEHOG PATHWAY INHIBITOR IN TREATING FIBROSIS DISEASES” (IMPACT THERAPEUTICS, INC, priority 2016, published 2019)

Key:
[1] = system: lung fibrosis model in mice induced by bleomycin; assay: Therapeutic efficacy in lung fibrosis model in mice induced by bleomycin; format: in vivo, C57BL/6 mice; conditions: n = 10, Mean ± Sem
Method: Experimental Methods: 60 male C57BL/6 mice were randomize into 6 groups: Blank control group (Group 1, n=10), model group (Group 2, BLM, n=10), Compound A 10 mpk group (Group 3, n=10), compound A 20 mpk group (Group 4, n=10), Compound A 20 mpk +BIBF1120 50 mpk (Group 5, n=10), and BIBF1120 50 mpk positive reference group (Group 6, n=10). One week after the mice were acclimated to the environment, 10 mice in the blank control group were given 50 μl of normal saline in the trachea, and other 50 mice were given 50 μl BLM (0.66 mg/kg, 2 ml/kg) in the trachea. After BLM infusion, 50 mice in BLM infusion group were randomly assigned to start treatment on the 5th day, once a day, with a treatment cycle of 20 days. The whole process was 25 days. After the experiment, the lung tissues were fixed in 10% neutral formalin, dehydrated by alcohol gradient, embedded with paraffin, stained by hematoxylin-eosin (H&E) and Masson trichrome staining. And the inflammatory area and degree of fibrosis of the lung tissues in mice were evaluated by APERIO ScanScope. Immunohistochemical staining of lung tissue was performed to quantify α-SMA positive fibroblasts in lung tissue and to calculate the percentage (%) of α-SMA staining in the entire lung stroma.

[2] = system: unilateral pulmonary fibrosis model in SD rats; assay: Therapeutic efficacy in unilateral pulmonary fibrosis model in SD rats (bleomycin, dosing from D8); format: in vivo; set-up: Evaluation of injury and inflammatory lesions of left lung: Fibrotic lesion edge / Evaluation of injury and inflammatory lesions of left lung: Fibrosis lesion: scale not given here; conditions: for Expression of Type I collagen (%) / Expression of α-SMA protein (%): left lung immunohistochemistry; for Evaluation of injury and inflammatory lesions of left lung: Fibrosis lesion / Evaluation of injury and inflammatory lesions of left lung: Fibrotic lesion edge: HE score; for Fibrosis area (left pulmonary): Masson trichrome
Method: On the modeling day, rats were anesthetized and exposed to trachea. Bleomycin was injected into left trachea of each group (dosage: 3 mg/kg, volume: 1.0 ml/kg). Oral administration was performed on Day 8 after modeling, once a day. On Day 22, according to the KCI animal euthanasia SOP, animals in each group were given an overdose of sodium barbiturate and sacrificed under intraperitoneal anesthesia, the left lung was taken, the weight and volume of the left lung were measured, then fixed by formalin, the bronchioles were stained with HE, Masson trichrome. The bronchioles, final bronchiole and small pulmonary artery injury and inflammation invasion were evaluated by semi-quantitative score, and pulmonary fibrosis was evaluated by Ashcraft semi-quantitative score. Immunohistochemical staining of α-SMA, Type I collagen (Collagen-I) were performed at the same time, a full scan was performed by Hamamatsu NanoZoomer Digital Pathology (S210), the α-SMA positive area was semiquantitatively calculated from the unit area of the whole sheelt in pulmonary fibrosis foci, and the positive staining area of type-I collagent per unit of area was calculated.

[3] = system: unilateral pulmonary fibrosis model in SD rats; assay: Prophylactic therapeutic efficacy in unilateral pulmonary fibrosis model in SD rats (bleomycin); format: in vivo; set-up: key to Fibrosis score (Ashcraft): Ashcraft semi-quantitative fibrosis score; Evaluation of injury and inflammatory lesions of left lung: Fibrotic lesion edge / Evaluation of injury and inflammatory lesions of left lung: Fibrosis lesion: scale not given here
Method: 40 male SD rats were randomized into Model group (Group 1, n=8), positive drug group BIBF1120 60 mg/kg/d group (Group 2, n=8), Compound A 5 mg/kg/d group (Group 3, n=8), compound A 10 mg/kg/d group (Group 4, n=8) and Compound A 20 mg/kg/d (Group 5, n=8). On the modeling day, rats were anesthetized and exposed to trachea. Bleomycin was injected into trachea of each group (dosage: 3 mg/kg, volume: 1.0 ml/kg). Oral administration was performed 2 hours after modeling, once a day. On Day 15, all the animals were killed, the left lung was taken, the weight and volume of the left lung were measured, then fixed by formalin, the bronchioles were stained with HE, Masson trichrome. The bronchioles, final bronchiole and small pulmonary artery injury and inflammation invasion were evaluated by semi-quantitative score, and pulmonary fibrosis was evaluated by Ashcraft semi-quantitative score.

[4] = system: bleomycin-induced lung injury in a mouse model; conditions: Moshai et al., 2014; cited from earlier work
[5] = system: foodborne non-alcoholic fatty hepatitis (NASH) model in mice; conditions: Hirsova et al., Plos One 2013; cited from earlier work
[6] = 100 mpk oral D8 to D22, mean ± sem, n = 6
[7] = 100 mpk oral D8 to D22 after modeling, mean ± sem
[8] = 60 mg/kg/d oral from modeling day, D15, HE score, mean ± sem, n = 8
[9] = 60 mg/kg/d oral from modeling day, D15, mean ± sem, n = 8
[10] = 50 mpk oral D8 to D22, mean ± sem, n = 8
[11] = 50 mpk oral D8 to D22 after modeling, mean ± sem

COC(=O)c1ccc2c(c1)NC(=O)/C2=C(\Nc1ccc(N(C)C(=O)CN2CCN(C)CC2)cc1)c1ccccc1 [BIBF1120, Nintedanib ethylsulfonate, reference compound]
Inflammatory infiltration area ([1]; 50 mpk oral D5 to D25): 4.33 ± 1.39 mm^2
Total lung tissue area ([1]; 50 mpk oral D5 to D25): 87.02 ± 4.05 mm^2
Percentage of inflammatory area (%) ([1]; 50 mpk oral D5 to D25, ###p < 0.001 vs. BLM model group): 4.67 ± 1.32^### %
Percentage of positive α-SMA (%) ([1]; BIBF1120 50 mpk oral D5 to D25, lung tissue immunohistochemical staining): 0.96 ± 0.20%
Expression of Type I collagen (%) [2, 6]: 18.99 ± 1.19%
Expression of α-SMA protein (%) [2, 6]: 7.36 ± 0.55%
Evaluation of injury and inflammatory lesions of left lung: Fibrosis lesion [2, 7]: 7.00 ± 0.36
Evaluation of injury and inflammatory lesions of left lung: Fibrotic lesion edge [2, 7]: 5.31 ± 0.28
Fibrosis area (left pulmonary) [2, 7]: 73.81 ± 1.14
Fibrosis Score 1-3 (%) [2, 7]: 88.33 ± 4.01%
Fibrosis Score 4-8 (%) [2, 7]: 11.67 ± 4.01%
Fibrosis score (Ashcraft) [2, 7]: 2.55 ± 0.18
Volume of left lung [2, 7]: 1.23 ± 0.09 cm^3
Weight of left lung [2, 7]: 1.31 ± 0.09 g
Evaluation of injury and inflammatory lesions of left lung: Fibrosis lesion [3, 8]: 7.88 ± 0.48
Evaluation of injury and inflammatory lesions of left lung: Fibrotic lesion edge [3, 8]: 5.50 ± 0.25
Fibrosis area (left pulmonary fibrosis) ([3]; 60 mg/kg/d oral from modeling day, D15, Masson trichrome, mean ± sem, n = 8): 77.85 ± 10.90
Fibrosis Score 1-3 (%) [3, 9]: 75.00 ± 23.90%
Fibrosis Score 4-8 (%) [3, 9]: 25.00 ± 23.90%
Fibrosis score (Ashcraft) [3, 9]: 3.15 ± 0.65
Volume of left lung [3, 9]: 1.24 ± 0.17 cm^3
Weight of left lung [3, 9]: 1.18 ± 0.14 g
average score of fibrosis in the entire fibrosis lesion (ashcraft) ([3]; BIBF1120 60 mg/kg/d, compound A 5, 10, 20 mg/kg/d): about 3 points

CN(C)c1ccccc1CN1CCCN(Cc2ccccc2N(C)C)C1c1ccncc1 [GANT61]
efficacy on pulmonary fibrosis [4]: good therapeutic effect

CS(=O)(=O)c1ccc(C(=O)Nc2ccc(Cl)c(-c3ccccn3)c2)c(Cl)c1 [GDC0449, vismodegib, reference compound]
efficacy on pulmonary fibrosis [4]: no efficacy
effect on liver injury, hepatic inflammation and fibrosis [5]: attenuating hepatic inflammation and fibrosis
damage and inflammatory response of terminal bronchioles within fibrosis lesions and pulmonary small artery compared with model group ([2]; 14 consecutive days, BIBF1120 100, Compound A 5, 15, 30, GDC0449 50 mg/kg/d, p<0.001): significantly reduced
Expression of Type I collagen (%) [2, 10]: 19.06 ± 0.70%
Expression of α-SMA protein (%) [2, 10]: 7.74 ± 0.59%
Evaluation of injury and inflammatory lesions of left lung: Fibrosis lesion [2, 11]: 6.38 ± 0.17
Evaluation of injury and inflammatory lesions of left lung: Fibrotic lesion edge [2, 11]: 4.80 ± 0.22
Fibrosis area (left pulmonary) [2, 11]: 67.96 ± 3.70
Fibrosis Score 1-3 (%) [2, 11]: 95.00 ± 2.67%
Fibrosis Score 4-8 (%) [2, 11]: 5.00 ± 2.67%
Fibrosis score (Ashcraft) [2, 11]: 2.16 ± 0.11
Weight of left lung [2, 11]: 1.29 ± 0.09 g
degree of pulmonary fibrosis (Ashcraft score) compared with model group ([2]; BIBF1120 100, Compound A 5, 15, 30, GDC0449 50 mg/kg/d, p<0.01): significantly better
amount of Type I collagen deposition in the fibrotic lesions compared with model group ([2]; BIBF1120 100 mpk, Compound A 5 mpk, GDC0449 50 mpk): no significant difference
positive rate of α-SMA in fibrosis lesions per unit area compared with model group ([2]; BIBF1120 100 mpk, GDC0449 50 mpk): no significant difference
treatment effect on fibrosis compared with BIBF1120 100 mg/kg/d ([2]; compound A 5, 15 and 30 mg/kg, GDC0449 50 mg/kg/d, 14 consecutive days): the same as that of BIBF1120
